Data taken from paper PMC6002953 (ACS chemical neuroscience, 2017).
Values joined by “and” are separate entries in the source; they are usually repeats but may differ in a detail not shown here. Equal entries are not always repeated.

Key:
MDCK-MDR1 monolayers = assay: BBB permeability, bidirectional transport through MDCK-MDR1 monolayers; conditions: 10 μM test article, single determination
human OX1 receptor = molecular target: T1, human OX1 receptor (Homo sapiens, UniProt O43613); assay: Calcium mobilization Ke assay, OX1; format: cell-based
T1 sequence (O43613 1-425): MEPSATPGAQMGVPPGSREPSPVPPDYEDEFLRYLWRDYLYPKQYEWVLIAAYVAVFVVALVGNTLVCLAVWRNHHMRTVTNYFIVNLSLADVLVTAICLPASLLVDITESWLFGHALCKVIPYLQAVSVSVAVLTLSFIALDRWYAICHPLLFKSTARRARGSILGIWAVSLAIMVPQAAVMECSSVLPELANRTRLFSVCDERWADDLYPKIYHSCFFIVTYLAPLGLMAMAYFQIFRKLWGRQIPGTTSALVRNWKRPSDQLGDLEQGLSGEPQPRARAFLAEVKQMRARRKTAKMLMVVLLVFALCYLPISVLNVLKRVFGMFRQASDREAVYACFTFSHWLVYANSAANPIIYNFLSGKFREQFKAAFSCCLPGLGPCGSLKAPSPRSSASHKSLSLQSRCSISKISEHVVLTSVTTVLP

P-glycoprotein (MDR1) = assay: BBB permeability, bidirectional transport through MDCK-MDR1 monolayers; conditions: dog, MDCK-MDR1, pH 7.4
human OX2 receptor = molecular target: T2, human OX2 receptor (Homo sapiens, UniProt O43614); assay: Calcium mobilization Ke assay, OX2; format: cell-based
T2 sequence (O43614 1-444): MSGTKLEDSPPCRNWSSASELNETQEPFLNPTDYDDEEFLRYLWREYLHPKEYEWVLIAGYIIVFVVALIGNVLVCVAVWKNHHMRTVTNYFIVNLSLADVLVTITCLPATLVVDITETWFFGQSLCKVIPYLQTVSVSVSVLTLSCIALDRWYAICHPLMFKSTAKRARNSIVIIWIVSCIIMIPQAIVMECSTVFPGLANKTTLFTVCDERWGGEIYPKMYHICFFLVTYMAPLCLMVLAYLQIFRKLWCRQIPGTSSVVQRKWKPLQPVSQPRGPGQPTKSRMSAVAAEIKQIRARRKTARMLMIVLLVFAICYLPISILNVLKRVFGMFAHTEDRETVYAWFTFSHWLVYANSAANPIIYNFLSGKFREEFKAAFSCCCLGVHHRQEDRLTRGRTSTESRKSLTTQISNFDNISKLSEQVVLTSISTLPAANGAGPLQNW

[1] = Kinetic solubility in PBS pH 7.4; format: physicochemical; conditions: pH 7.4, aqueous buffer, kinetic from dmso stock

| SMILES | Papp A-to-B (MDCK-MDR1 monolayers; MDCK-MDR1, apical-to-basolateral) | Papp B-to-A (MDCK-MDR1 monolayers; MDCK-MDR1, basolateral-to-apical) | Kd (human OX1 receptor) [nM] | selectivity over OX2 (human OX1 receptor; OX1 over OX2, calcium mobilization assays) | OX2/OX1 (human OX1 receptor; ratio of Ke values OX2/OX1) | Papp A→B at 90 min, 10 μM (P-glycoprotein (MDR1)) [×10⁻⁶ cm/s] | Papp B→A at 90 min, 10 μM (P-glycoprotein (MDR1)) [×10⁻⁶ cm/s] | efflux ratio at 90 min, 10 μM (P-glycoprotein (MDR1)) | Kd (human OX2 receptor) [nM] | solubility kinetic at 2 h [1] [µM] |
| --- | --- | --- | --- | --- | --- | --- | --- | --- | --- | --- |
| COc1ccc(CC2c3cc(OCC(F)(F)F)c(OC)cc3CCN2CC(=O)NCc2cccnc2)cc1OC (stereo not shown) [Compound 5, reference compound] | 12.2 10^−6 cm/sec | 36.2 10^−6 cm/sec | – | – | – | – | – | – | – | – |
| COc1ccc(CC2c3cc(N(C)C)c(OC)cc3CCN2CC(=O)NCc2cccnc2)cc1N(C)C (stereo not shown) [Compound 44, 2-[7-(Dimethylamino)-1-{[3-(dimethylamino)-4-methoxyphenyl]methyl}-6-methoxy-1,2,3,4-tetrahydroisoquinolin-2-yl]-N-(pyridin-3-ylmethyl)acetamide] | – | – | 5.7 ± 1 | > 1,760 fold and > 1,000 fold | >1,760 | 14.7 | 47.8 | 3.3 | > 10000 | > 200 |
